The supplement of paper PMC11208160

Assay: recombinant UMI read abundance after kanamycin selection (control-corrected) (log10(CPM+1)); higher = more efficient recombination; extreme values may be limits of the assay; sequences stand for … in AGTGCAGAGAAAATCGGCCAGTTTTCTCTGCCTGCAGTCCGCATGCCGTGGGACCCCTTGGGTTCTAACCTGTTGCCTAGATTTATGCAGCGGACTGCCTTTCTCCCAAAGTGATAAACCGG…AGGTTGGTTTCACT; site = the 11-nt donor
Method in brief: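 Sequenced counts of recombinant UMIs were turned into CPM, averaged across replicates and scaled with control-derived factors. The reported figure is log10(CPM+1). Those UMIs, each 12 nt long, tagged donor and donor-binding-loop pairs on a plasmid with a promoterless kanamycin gene, screened as a pool in Escherichia coli with IPTG (0.07 mM) plus kanamycin or without selection.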
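Also: IS621 bridge recombinase in Escherichia coli cells against a fixed T5 target plasmid.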

| Sequence | recombinant UMI read abundance (log10) |
| --- | --- |
| CTGTCAGCATGGACCGGTTTTCCCGGTAATCCGTATTTGGG (site CTGTCAGCTCC) | 0.0174 |
| CTGTCCGCATGGACCGGTTTTCCCGGTAATCCGTATTTGAT (site CTGTCCGCTAT) | 1.96 |
| CTGTCGACATGGACCGGTTTTCCCGGTAATCCGTATTTGGG (site CAGTCGACTCC) | 0.00865 |
| CTGTCGACATGGACCGGTTTTCCCGGTAATCCGTATTTGGG (site CCGTCGACTCC) | 0.0205 |
| CTGTCGACATGGACCGGTTTTCCCGGTAATCCGTATTTGGG (site CGGTCGACTCC) | 0.012 |
| CTGTCGACATGGACCGGTTTTCCCGGTAATCCGTATTTGGG (site CTGTCGACTCC) | 0.0289 |
| CTGTCTACATGGACCGGTTTTCCCGGTAATCCGTATTTGTT (site CTGTCTACTAA) | 0.252 |
| CTGTGATCATGGACCGGTTTTCCCGGTAATCCGTATTTGAA (site CTGTGATCTTT) | 2.65 |
| CTGTGTGCATGGACCGGTTTTCCCGGTAATCCGTATTTGGT (site CTGTGTGCTAC) | 1.44 |
| CTGTTTGCATGGACCGGTTTTCCCGGTAATCCGTATTTGAA (site CTGTTTGCTTT) | 1.66 |
| CTTCCGACATGGACCGGTTTTCCCGGTAATCCGTATTTGGA (site CTTCCGACTTC) | 0.0169 |
| CTTCCGGCATGGACCGGTTTTCCCGGTAATCCGTATTTGAT (site CTTCCGGCTAT) | 1.14 |
| CTTCGCTCATGGACCGGTTTTCCCGGTAATCCGTATTTGTA (site CTTCACTCTTA) | 1.14 |
| CTTCGCTCATGGACCGGTTTTCCCGGTAATCCGTATTTGTA (site CTTCCCTCTTA) | 0.0134 |
| CTTCGCTCATGGACCGGTTTTCCCGGTAATCCGTATTTGTA (site CTTCGCTCTTA) | 1.8 |
| CTTCGCTCATGGACCGGTTTTCCCGGTAATCCGTATTTGTA (site CTTCTCTCTTA) | 0.00289 |
| CTTCTAACATGGACCGGTTTTCCCGGTAATCCGTATTTGGA (site CTACTAACTTC) | 0.0127 |
| CTTCTAACATGGACCGGTTTTCCCGGTAATCCGTATTTGGA (site CTCCTAACTTC) | 0.00424 |
| CTTCTAACATGGACCGGTTTTCCCGGTAATCCGTATTTGGA (site CTGCTAACTTC) | 0.00962 |
| CTTCTAACATGGACCGGTTTTCCCGGTAATCCGTATTTGGA (site CTTCTAACTTC) | 0.0115 |
| CTTCTCTCATGGACCGGTTTTCCCGGTAATCCGTATTTGAA (site CTTCTCTCTTA) | 0 |
| CTTCTCTCATGGACCGGTTTTCCCGGTAATCCGTATTTGAA (site CTTCTCTCTTC) | 0.199 |
| CTTCTCTCATGGACCGGTTTTCCCGGTAATCCGTATTTGAA (site CTTCTCTCTTG) | 0 |
| CTTCTCTCATGGACCGGTTTTCCCGGTAATCCGTATTTGAA (site CTTCTCTCTTT) | 0.96 |
| CTTGACACATGGACCGGTTTTCCCGGTAATCCGTATTTGAC (site CTTGACACTGT) | 0.445 |

| Sequence | recombinant UMI read abundance (log10) |
| --- | --- |
| CTTGCCCCATGGACCGGTTTTCCCGGTAATCCGTATTTGTG (site CTTGCCCCTCA) | 0.0167 |
| CTTGTACCATGGACCGGTTTTCCCGGTAATCCGTATTTGAC (site CTAGTATCTGT) | 0 |
| CTTGTACCATGGACCGGTTTTCCCGGTAATCCGTATTTGAC (site CTTGTACCTGT) | 0 |
| CTTGTGGCATGGACCGGTTTTCCCGGTAATCCGTATTTGGG (site CTTGTGGCTCC) | 0.00701 |
| CTTGTTGCATGGACCGGTTTTCCCGGTAATCCGTATTTGGT (site CTTGTTGCTAC) | 1.26 |
| CTTTCGCCATGGACCGGTTTTCCCGGTAATCCGTATTTGCT (site CTTTCGCCTAG) | 0.0294 |
| CTTTCTCCATGGACCGGTTTTCCCGGTAATCCGTATTTGCT (site CTTTCTCCTAG) | 1.82 |
| CTTTGCCCATGGACCGGTTTTCCCGGTAATCCGTATTTGAG (site CTTTGCCCTCT) | 0.0229 |
| CTTTGGGCATGGACCGGTTTTCCCGGTAATCCGTATTTGTC (site CTTTGGGCTGA) | 0 |
| CTTTTGGCATGGACCGGTTTTCCCGGTAATCCGTATTTGCT (site CATTTGGCTAG) | 0 |
| CTTTTGGCATGGACCGGTTTTCCCGGTAATCCGTATTTGCT (site CCTTTGGCTAG) | 0 |
| CTTTTGGCATGGACCGGTTTTCCCGGTAATCCGTATTTGCT (site CGTTTGGCTAG) | 0.00381 |
| CTTTTGGCATGGACCGGTTTTCCCGGTAATCCGTATTTGCT (site CTTTTGGCTAG) | 0 |
| GAAAACGCATGGACCGGTTTTCCCGGTAATCCGTATTTGAA (site GAAAACGCTTT) | 2.16 |
| GAAAAGTCATGGACCGGTTTTCCCGGTAATCCGTATTTGAA (site GAAAAGTCTTT) | 2.84 |
| GAAAATTCATGGACCGGTTTTCCCGGTAATCCGTATTTGTT (site GAAAATTCTAA) | 0.97 |
| GAAAATTCATGGACCGGTTTTCCCGGTAATCCGTATTTGTT (site GAACATTCTAA) | 0 |
| GAAAATTCATGGACCGGTTTTCCCGGTAATCCGTATTTGTT (site GAAGATTCTAA) | 0.507 |
| GAAAATTCATGGACCGGTTTTCCCGGTAATCCGTATTTGTT (site GAATATTCTAA) | 1.79 |
| GAAACACCATGGACCGGTTTTCCCGGTAATCCGTATTTGTT (site GAAACACCTAA) | 0.0036 |
| GAAACCTCATGGACCGGTTTTCCCGGTAATCCGTATTTGTG (site GAAACCTCTCA) | 0.406 |
| GAAACGTCATGGACCGGTTTTCCCGGTAATCCGTATTTGGC (site GAAACGTCTGC) | 2.01 |
| GAAAGCTCATGGACCGGTTTTCCCGGTAATCCGTATTTGCG (site GAAAGCTCTCG) | 2.77 |
| GAAAGGCCATGGACCGGTTTTCCCGGTAATCCGTATTTGCA (site GAAAGGCCTTG) | 0 |
| GAAAGGCCATGGACCGGTTTTCCCGGTAATCCGTATTTGCA (site GAACGGCCTTG) | 0 |

| Sequence | recombinant UMI read abundance (log10) |
| --- | --- |
| GAAAGGCCATGGACCGGTTTTCCCGGTAATCCGTATTTGCA (site GAAGGGCCTTG) | 0 |
| GAAAGGCCATGGACCGGTTTTCCCGGTAATCCGTATTTGCA (site GAATGGCCTTG) | 0 |
| GAAAGTCCATGGACCGGTTTTCCCGGTAATCCGTATTTGTA (site AAAAGTCCTTA) | 0 |
| GAAAGTCCATGGACCGGTTTTCCCGGTAATCCGTATTTGTA (site CAAAGTCCTTA) | 0.821 |
| GAAAGTCCATGGACCGGTTTTCCCGGTAATCCGTATTTGTA (site GAAAGTCCTTA) | 0.0817 |
| GAAAGTCCATGGACCGGTTTTCCCGGTAATCCGTATTTGTA (site TAAAGTCCTTA) | 1.01 |
| GAACGGACATGGACCGGTTTTCCCGGTAATCCGTATTTGAA (site GAACGGACTTT) | 0.965 |
| GAACTATCATGGACCGGTTTTCCCGGTAATCCGTATTTGCC (site GAACTATCTGG) | 1.78 |
| GAACTCACATGGACCGGTTTTCCCGGTAATCCGTATTTGAT (site GAACTCACTAT) | 2.08 |
| GAACTCACATGGACCGGTTTTCCCGGTAATCCGTATTTGAT (site GACCTCACTAT) | 0.375 |
| GAACTCACATGGACCGGTTTTCCCGGTAATCCGTATTTGAT (site GAGCTCACTAT) | 0 |
| GAACTCACATGGACCGGTTTTCCCGGTAATCCGTATTTGAT (site GATCTCACTAT) | 0.263 |
| GAAGAAGCATGGACCGGTTTTCCCGGTAATCCGTATTTGAG (site GAAGAAGCTCT) | 2.53 |
| GAAGAATCATGGACCGGTTTTCCCGGTAATCCGTATTTGTT (site GAAGAATCTAA) | 3.34 |
| GAAGAATCATGGACCGGTTTTCCCGGTAATCCGTATTTGTT (site GAAGACTCTAA) | 1.41 |
| GAAGAATCATGGACCGGTTTTCCCGGTAATCCGTATTTGTT (site GAAGAGTCTAA) | 1.59 |
| GAAGAATCATGGACCGGTTTTCCCGGTAATCCGTATTTGTT (site GAAGATTCTAA) | 0 |
| GAAGACCCATGGACCGGTTTTCCCGGTAATCCGTATTTGCG (site GAAGACCCTCG) | 0.691 |
| GAAGAGGCATGGACCGGTTTTCCCGGTAATCCGTATTTGTA (site GAAGAGGCTTA) | 1.64 |
| GAAGATCCATGGACCGGTTTTCCCGGTAATCCGTATTTGTT (site GAAGATACTAA) | 0.0059 |
| GAAGATCCATGGACCGGTTTTCCCGGTAATCCGTATTTGTT (site GAAGATCCTAA) | 1.25 |
| GAAGATCCATGGACCGGTTTTCCCGGTAATCCGTATTTGTT (site GAAGATGCTAA) | 0.00882 |
| GAAGATCCATGGACCGGTTTTCCCGGTAATCCGTATTTGTT (site GAAGATTCTAA) | 0.0204 |
| GAAGATTCATGGACCGGTTTTCCCGGTAATCCGTATTTGAT (site GAAGATTCTAA) | 0.773 |
| GAAGATTCATGGACCGGTTTTCCCGGTAATCCGTATTTGAT (site GAAGATTCTAC) | 0.00538 |
